Results from patent publication US9221796B2, “Selective NR2B antagonists” (BRISTOL-MYERS SQUIBB COMPANY, priority 2014, dated 2015).

target: NR2B-subtype NMDA receptors (Rattus norvegicus (Rat), UniProt P35439+Q00960); experiment: Radioligand binding assay (3H Ro 25-6981 competition, forebrain membranes); conditions: 3H Ro 25-6981 (4 nM), read-out: NR2B Binding Ki
Procedure, shortened: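 Rat forebrain membranes competed against [3H]Ro 25-6981 for 1 hr at room temperature, then filtered onto PEI-treated GF/B plates and counted by scintillation. CPM converted to % inhibition, concentration-response curves fitted, Ki derived from at least two experiments.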

Chain of NR2B-subtype NMDA receptors (Q00960 27-1482, other chains not shown): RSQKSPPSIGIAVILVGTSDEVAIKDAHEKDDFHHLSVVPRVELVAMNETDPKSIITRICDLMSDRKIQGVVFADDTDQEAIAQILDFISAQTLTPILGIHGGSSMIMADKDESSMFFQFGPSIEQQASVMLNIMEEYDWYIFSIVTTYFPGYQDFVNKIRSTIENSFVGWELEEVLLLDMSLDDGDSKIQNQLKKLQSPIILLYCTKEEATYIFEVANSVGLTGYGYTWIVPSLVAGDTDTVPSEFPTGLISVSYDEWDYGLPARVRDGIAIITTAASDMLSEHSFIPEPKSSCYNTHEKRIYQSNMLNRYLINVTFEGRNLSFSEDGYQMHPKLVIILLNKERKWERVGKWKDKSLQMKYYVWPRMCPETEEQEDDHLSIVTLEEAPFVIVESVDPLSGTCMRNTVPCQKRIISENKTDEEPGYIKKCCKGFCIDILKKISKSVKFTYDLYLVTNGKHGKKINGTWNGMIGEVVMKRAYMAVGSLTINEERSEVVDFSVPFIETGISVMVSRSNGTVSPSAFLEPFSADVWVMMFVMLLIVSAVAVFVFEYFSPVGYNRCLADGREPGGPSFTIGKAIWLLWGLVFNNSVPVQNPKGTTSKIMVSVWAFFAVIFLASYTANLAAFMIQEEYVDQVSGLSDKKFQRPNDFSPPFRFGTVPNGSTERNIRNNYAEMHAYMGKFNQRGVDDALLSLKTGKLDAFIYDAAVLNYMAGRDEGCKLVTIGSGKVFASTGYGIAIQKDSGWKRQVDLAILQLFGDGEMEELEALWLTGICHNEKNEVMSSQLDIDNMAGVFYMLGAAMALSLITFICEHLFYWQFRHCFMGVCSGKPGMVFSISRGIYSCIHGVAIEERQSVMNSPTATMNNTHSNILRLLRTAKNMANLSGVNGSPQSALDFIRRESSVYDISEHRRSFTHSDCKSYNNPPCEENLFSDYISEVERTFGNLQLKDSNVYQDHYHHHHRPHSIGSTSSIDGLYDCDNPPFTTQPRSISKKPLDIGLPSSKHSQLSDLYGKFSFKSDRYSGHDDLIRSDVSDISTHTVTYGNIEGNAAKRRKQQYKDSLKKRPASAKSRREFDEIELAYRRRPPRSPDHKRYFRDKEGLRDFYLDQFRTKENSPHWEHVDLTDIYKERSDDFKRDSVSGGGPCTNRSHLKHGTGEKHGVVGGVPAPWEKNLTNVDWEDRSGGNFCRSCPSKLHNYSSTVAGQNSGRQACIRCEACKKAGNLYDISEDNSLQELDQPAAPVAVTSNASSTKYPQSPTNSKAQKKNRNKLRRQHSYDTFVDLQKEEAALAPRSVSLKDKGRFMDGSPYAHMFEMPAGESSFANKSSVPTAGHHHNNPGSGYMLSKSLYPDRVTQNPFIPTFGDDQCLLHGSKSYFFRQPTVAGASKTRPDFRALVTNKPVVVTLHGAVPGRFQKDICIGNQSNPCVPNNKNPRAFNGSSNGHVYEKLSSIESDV

SMILES	Ki [nM]
Cc1ccc(CN2CC[C@H](N3CC[C@@H](c4ccc(O)c(F)c4)[C@H](F)C3)C2=O)cc1F [Example 45, P-1, (S)-3-((3S,4S)-3-fluoro-4-(3-fluoro-4-hydroxyphenyl)piperidin-1-yl)-1-(3-fluoro-4-methylbenzyl)pyrrolidin-2-one]	260
O=C1C(N2CCCCC(c3ccc(O)cc3)C2)CCN1Cc1ccc(F)cc1 (stereo not drawn) [Example 31, 1-(4-Fluorobenzyl)-3-(3-(4-hydroxyphenyl)azepan-1-yl)pyrrolidin-2-one]	800
O=C1C(N2CCC(c3ccc(O)cc3)C(O)C2)CCN1Cc1ccc(F)cc1 (single isomer, unassigned) [Example 9d, 1-(4-Fluorobenzyl)-3-(3-hydroxy-4-(4-hydroxyphenyl)piperidin-1-yl)pyrrolidin-2-one]	160
Cc1ccc(CN2CC[C@@H](N3CC[C@@H](c4ccc(O)c(F)c4)[C@H](F)C3)C2=O)cc1F [Example 45, P-2, (R)-3-((3S,4S)-3-fluoro-4-(3-fluoro-4-hydroxyphenyl)piperidin-1-yl)-1-(3-fluoro-4-methylbenzyl)pyrrolidin-2-one]	3.1
O=C1[C@H](N2CC[C@@H](c3ccc(O)cc3)[C@H](F)C2)CCN1Cc1ccc(Cl)c(F)c1 [Example 67, (R)-1-(4-Chloro-3-fluorobenzyl)-3-((3S,4S)-3-fluoro-4-(4-hydroxyphenyl)piperidin-1-yl)pyrrolidin-2-one]	6.5
O=C1[C@@H](N2CC[C@@H](c3ccc(O)cc3)[C@H](F)C2)CCN1Cc1ccc(Cl)c(F)c1 [Example 66, (S)-1-(4-Chloro-3-fluorobenzyl)-3-((3S,4S)-3-fluoro-4-(4-hydroxyphenyl)piperidin-1-yl)pyrrolidin-2-one]	1500
O=C1[C@H](N2CCC(c3ccc(O)cc3)CC2)CCN1Cc1ccc(F)c(F)c1 [Example 6b, (R)-1-(3,4-Difluorobenzyl)-3-(4-(4-hydroxyphenyl)piperidin-1-yl)pyrrolidin-2-one]	4.7
Cc1ccc(CN2CC[C@H](N3CC(c4ccc(O)cc4)C3)C2=O)cc1 [Example 28a, (S)-3-(3-(4-Hydroxyphenyl)azetidin-1-yl)-1-(4-methylbenzyl)pyrrolidin-2-one]	420
O=C1[C@@H](N2CC[C@@H](c3ccc(O)cc3)[C@H](F)C2)CCN1Cc1ccc(C(F)(F)F)cc1 [Example 71, (S)-3-((3S,4S)-3-Fluoro-4-(4-hydroxyphenyl)piperidin-1-yl)-1-(4-(trifluoromethyl)-benzyl)pyrrolidin-2-one]	560
C[C@@H](c1ccccc1)N1CCC(N2CC[C@@H](c3ccc(O)cc3)[C@H](F)C2)C1=O (stereo partly drawn) [Example 68, 3-((3S,4S)-3-Fluoro-4-(4-hydroxyphenyl)piperidin-1-yl)-1-(1-phenylethyl)pyrrolidin-2-one]	710
O=C1[C@H](N2CC[C@@H](c3ccc(O)c(F)c3)[C@H](F)C2)CCN1Cc1ccc(Cl)cc1 [Example 116, (R)-1-(4-chlorobenzyl)-3-((3S,4S)-3-fluoro-4-(3-fluoro-4-hydroxyphenyl)piperidin-1-yl)pyrrolidin-2-one]	2
O=C1[C@H](N2CCC(c3ccc(O)cc3)C(F)(F)C2)CCN1Cc1ccc(Cl)cc1 (stereo partly drawn) [Example 95, P-2, (3R)-1-(4-Chlorobenzyl)-3-(3,3-difluoro-4-(4-hydroxyphenyl)piperidin-1-yl)pyrrolidin-2-one]	12
Cc1cccc(CN2CCC(N3CC[C@H](c4ccc(O)cc4)[C@@H](F)C3)C2=O)c1 (stereo partly drawn) [Example 77, 3-((3R,4R)-3-Fluoro-4-(4-hydroxyphenyl)piperidin-1-yl)-1-(3-methylbenzyl)pyrrolidin-2-one]	27
O=C1[C@@H](N2CCC(c3ccc(O)cc3)C(F)(F)C2)CCN1Cc1ccc(F)c(F)c1 (single isomer, unassigned) [Example 108, P-1]	1200
C[C@@H](c1ccc(F)cc1)N1CCC(N2CCC(c3ccc(O)cc3)C(F)(F)C2)C1=O (single isomer, unassigned) [Example 56, P-2]	1400
O=C1[C@H](N2CCC(c3ccc(O)cc3)CC2)CCN1Cc1ccc(Cl)cc1 [Example 18b, (R)-1-(4-Chlorobenzyl)-3-(4-(4-hydroxyphenyl)piperidin-1-yl)pyrrolidin-2-one]	1.5
O=C1[C@@H](N2CC[C@@H](c3ccc(O)cc3)[C@H](F)C2)CCN1c1ccc(OC(F)F)c(Cl)c1 [Example 62, (S)-1-(3-Chloro-4-(difluoromethoxy)phenyl)-3-((3S,4S)-3-fluoro-4-(4-hydroxyphenyl)-piperidin-1-yl)pyrrolidin-2-one]	6.7
Cc1ccc(CN2CCC(N3CC(c4ccc(O)cc4)C3)C2=O)cc1F (stereo not drawn) [Example 20, 1-(3-Fluoro-4-methylbenzyl)-3-(3-(4-hydroxyphenyl)azetidin-1-yl)pyrrolidin-2-one]	43
Cc1ccc(CN2CC[C@@H](N3CC(c4ccc(O)cc4)C3)C2=O)cc1 [Example 28b, (R)-3-(3-(4-Hydroxyphenyl)azetidin-1-yl)-1-(4-methylbenzyl)-pyrrolidin-2-one]	10
C[C@@H](c1ccc(F)cc1)N1CCC(N2CCC(c3ccc(O)cc3)C(F)(F)C2)C1=O (single isomer, unassigned) [Example 56, P-4]	660
O=C1[C@@H](N2CCC(c3ccc(O)cc3)CC2)CCN1Cc1ccc(F)c(F)c1 [Example 6a, (S)-1-(3,4-Difluorobenzyl)-3-(4-(4-hydroxyphenyl)piperidin-1-yl)pyrrolidin-2-one]	850
O=C1C(N2CC[C@H](c3ccc(O)cc3)[C@@H](F)C2)CCN1c1ccc(OC(F)F)c(Cl)c1 (stereo partly drawn) [Example 79, 1-(3-Chloro-4-(difluoromethoxy)phenyl)-3-((3R,4R)-3-fluoro-4-(4-hydroxyphenyl)-piperidin-1-yl)pyrrolidin-2-one]	40
O=C1[C@H](N2CC[C@@H](c3ccc(O)cc3)[C@H](F)C2)CCN1Cc1ccc(Cl)cc1 [Example 65, (R)-1-(4-Chlorobenzyl)-3-((3S,4S)-3-fluoro-4-(4-hydroxyphenyl)piperidin-1-yl)pyrrolidin-2-one]	3.6
O=C1[C@@H](N2CC[C@@H](c3ccc(O)cc3)[C@H](F)C2)CCN1Cc1ccc(C(F)F)cc1 [Example 114, P-2, (S)-1-(4-(difluoromethyl)benzyl)-3-((3S,4S)-3-fluoro-4-(4-hydroxyphenyl)piperidin-1-yl)pyrrolidin-2-one]	180
O=C1[C@H](N2CCC(c3ccc(O)cc3)CC2)CCN1Cc1ccc(O)c(O)c1 [Example 43, (R)-1-(3,4-Dihydroxybenzyl)-3-(4-(4-hydroxyphenyl)piperidin-1-yl)pyrrolidin-2-one]	150
Cc1ccc(CN2CCCC(N3CCC(c4ccc(O)cc4)CC3)C2=O)cc1F (stereo not drawn) [Example 39, 1′-(3-Fluoro-4-methylbenzyl)-4-(4-hydroxyphenyl)-[1,3′-bipiperidin]-2′-one]	300

More lines, now with the values ahead:

Ki [nM]	SMILES
4.6	O=C1[C@H](N2CCC(c3ccc(O)cc3)C(F)(F)C2)CCN1Cc1ccc(Cl)cc1 (stereo partly drawn) [Example 106, P-2, (3R)-1-(4-Chlorobenzyl)-3-(3,3-difluoro-4-(4-hydroxyphenyl)piperidin-1-yl)pyrrolidin-2-one]
420	O=C1C(N2CCC(c3ccc(O)cc3)C(O)C2)CCN1Cc1ccc(F)cc1 (stereo not drawn) [Example 8, 1-(4-Fluorobenzyl)-3-(3-hydroxy-4-(4-hydroxyphenyl)piperidin-1-yl)pyrrolidin-2-one]
20	Cc1ccc(CN2CCC(N3CC(c4ccc(O)cc4)C3)C2=O)cc1 (stereo not drawn) [Example 27, 3-(3-(4-Hydroxyphenyl)azetidin-1-yl)-1-(4-methylbenzyl)pyrrolidin-2-one]
2.9	O=C1[C@H](N2CC[C@@H](c3ccc(O)c(F)c3)[C@H](F)C2)CCN1Cc1ccc(C(F)F)cc1 [Example 117, P-2, (R)-1-(4-(difluoromethyl)benzyl)-3-((3S,4S)-3-fluoro-4-(3-fluoro-4-hydroxyphenyl)piperidin-1-yl)pyrrolidin-2-one]
4	O=C1C(N2CCC(c3ccc(O)cc3)CC2)CCN1Cc1ccccc1 (stereo not drawn) [Example 12, 1-Benzyl-3-(4-(4-hydroxyphenyl)piperidin-1-yl)pyrrolidin-2-one]
5	O=C1[C@H](N2CC[C@H](c3ccc(O)cc3)[C@@H](F)C2)CCN1Cc1ccc(Cl)c(F)c1 [Example 83, (R)-1-(4-Chloro-3-fluorobenzyl)-3-((3R,4R)-3-fluoro-4-(4-hydroxyphenyl)piperidin-1-yl)pyrrolidin-2-one]
34	O=C1C(N2CC[C@@H](c3ccc(O)cc3)[C@H](F)C2)CCN1Cc1ccc(F)c(F)c1 (stereo partly drawn) [Example 69, 1-(3,4-Difluorobenzyl)-3-((3S,4S)-3-fluoro-4-(4-hydroxyphenyl)piperidin-1-yl)pyrrolidin-2-one]
380	O=C1[C@@H](N2CCC(c3ccc(O)cc3)C(F)(F)C2)CCN1Cc1ccc(C(F)(F)F)cc1 (single isomer, unassigned) [Example 99, P-1]
3.9	Cc1ccc(CN2CCC(N3CCC(c4ccc(O)cc4)CC3)C2=O)cc1F (stereo not drawn) [Example 19, 1-(3-Fluoro-4-methylbenzyl)-3-(4-(4-hydroxyphenyl)piperidin-1-yl)pyrrolidin-2-one]
78	O=C1C(N2CC[C@H](c3ccc(O)cc3)[C@@H](F)C2)CCN1Cc1ccc(Cl)c(Cl)c1 (stereo partly drawn) [Example 86, 1-(3,4-Dichlorobenzyl)-3-((3R,4R)-3-fluoro-4-(4-hydroxyphenyl)-piperidin-1-yl)pyrrolidin-2-one]
720	O=C1C(N2CCCC(c3ccc(O)cc3)C2)CCCN1Cc1ccc(Cl)cc1 (stereo not drawn) [Example 42, 1′-(4-Chlorobenzyl)-3-(4-hydroxyphenyl)-[1,3′-bipiperidin]-2′-one]
390	O=C1C(N2CCC(c3ccc(O)cc3)C(F)(F)C2)CCN1Cc1ccc(OC(F)F)cc1 (stereo not drawn) [Example 94, 3-(3,3-Difluoro-4-(4-hydroxyphenyl)piperidin-1-yl)-1-(4-(difluoromethoxy)benzyl)-pyrrolidin-2-one]
34	Cc1ccc(CN2CCC(N3CCCC(c4ccc(O)cc4)CC3)C2=O)cc1 (stereo not drawn) [Example 36, 3-(4-(4-Hydroxyphenyl)azepan-1-yl)-1-(4-methylbenzyl)-pyrrolidin-2-one]
